Results from patent publication US20070254038A1, “Microspheroidal Controlled Release Of Biomolecules” (The Trustees of the University of Pennsylvania, priority 2006, published 2007).
“Also recorded” adds a separate entry of the source.

Test: Incorporation of vancomycin into acid-catalyzed (AC) and acid-base catalyzed (ABC) sols: clear vs cloudy (precipitation)
Assay type: physicochemical
Method: TEOS (10 ml) and 0.1 M HCl (2.4 ml), with or without the addition of deionized water, were mixed using a magnetic stirrer until a one-phase sol was formed. The water/TEOS molar ratio varied from 0 to 10. Pharmaceutical agents were then added to the sol. For example, Sols with 20 mg/g and 30 mg/g of vancomycin (drug to SiO2 ratio), and sols with 50 mg/g and 80 mg/g of bupivacaine per gram SiO2 were made by adding corresponding amounts of the drug. The sol containing added pharmaceutical agents was mixed for 30 minutes at 660 rpm and was then allowed to stand for 15 minutes. Subsequently, 0.08 M NH4OH (2.2-2.4 ml) was added dropwise to the sol, which was stirred at 660 rpm targeting a final pH of about 5.5. Under these conditions, the time to gelation varied from about 20 and 40 minutes. Upon mixing, the sol was added dropwise into vegetable oil stirred at speeds between 220 and 440 rpm and microspheres precipitated to the bottom of the beaker. Microspheres were filtered through a 70 μm nylon microporous filter and then rinsed with DI water and alcohol. The microspheres were left to dry overnight in a laminar flow hood.
Vancomycin (vancomycin-HCl; Abbott Labs, Chicago, Ill.) dissolved in water at 100 mg/ml was used for incorporation into the sols. Bupivacaine (Spectrum, New Brunswick, N.J.) dissolved in methanol at 70 mg/ml was also used for incorporation into the sols.
The effect of water content on the incorporation of vancomycin into the sol was studied by using either “water-free” (no additional water added other than that contained in the aqueous HCl solution) acid-catalyzed sols or sols with added water/TEOS molar ratios (R) of 5, 6, 8, and 10. […] When water was added at R=4, low doses of vancomycin such as 16.7 mg/g SiO2 could be added to the acid-catalyzed sol.

For `CN[C@H](CC(C)C)C(=O)N[C@H]1C(=O)N[C@@H](CC(N)=O)C(=O)N[C@H]2C(=O)N[C@H]3C(=O)N[C@H](C(=O)N[C@H](C(=O)O)c4cc(O)cc(O)c4-c4cc3ccc4O)[C@H](O)c3ccc(c(Cl)c3)Oc3cc2cc(c3O[C@@H]2O[C@H](CO)[C@@H](O)[C@H](O)[C@H]2O[C@H]2C[C@](C)(N)[C@H](O)[C@H](C)O2)Oc2ccc(cc2Cl)[C@H]1O` [Vancomycin, vancomycin], the “appearance of sol on incorporation of vancomycin” value (shortened to “appearance of sol”) (water-free AC sol, vancomycin loading 16.7 mg/g) was “cloudy”, the “appearance of sol” value (water/TEOS R=4, ABC sol (after base), loading 16.7 mg/g) was “precipitation of vancomycin was seen; also recorded: cloudy” and the “appearance of sol” value (water/TEOS R=4, AC sol, loading 16.7 mg/g) was “clear”. The “appearance of sol” value (water/TEOS R=5, ABC sol (after base), loading 28 mg/g) was “vancomycin precipitation was observed; also recorded: cloudy”, the “appearance of sol” value (water/TEOS R=5, ABC sol, loading 16.7 mg/g) was “clear” and the “appearance of sol” value (water/TEOS R=5, ABC sol, loading 22.2 mg/g) was “clear”. For the same molecule, the “appearance of sol” value (water/TEOS R=5, AC sol, loading 16.7 mg/g) was “clear”, the “appearance of sol” value (water/TEOS R=5, AC sol, loading 22.2 mg/g) was “clear” and the “appearance of sol” value (water/TEOS R=5, AC sol, loading 28 mg/g) was “clear”. For the same molecule, the “precipitation after the addition of the drug and base” value (water/TEOS R=5, doses up to 20 mg/g SiO2) was “no precipitation was observed”, the “appearance of sol” value (water/TEOS R=8, ABC sol, loading 22.2 mg/g) was “clear” and the “appearance of sol” value (water/TEOS R=8, ABC sol, loading 33 mg/g) was “clear”. For the same molecule, the “appearance of sol” value (water/TEOS R=8, AC sol, loading 22.2 mg/g) was “clear”, the “appearance of sol” value (water/TEOS R=8, AC sol, loading 33 mg/g) was “clear” and the “appearance of sol” value (water/TEOS R=10, ABC sol, loading 22.2 mg/g) was “clear”. For the same molecule, the “appearance of sol” value (water/TEOS R=10, AC sol, loading 22.2 mg/g) was “clear” and the “incorporation of higher loads into the sol” value (water/TEOS ratios 8 and above, load such as 28 mg/g SiO2) was “successfully incorporated”.
